According to patent US11464866B2, “Pharmaceutical composition containing macromolecular drug” (BIODYNAMIC RESEARCH FOUNDATION, priority 2016, dated 2022):

Test system: S-180 mice (tumor model)
Settings: mouse, in vivo, 1 day
Description: Method: In 1 ml of saline (0.01 M phosphate, 0.15 M NaCl, pH 7.4) were dissolved 10 mg of each sample (10 mg/ml) and the predetermined amount of each test reagent shown in Table 2. Then, 0.1 ml of each obtained solution and 0.1 ml of an aqueous solution (10 mg/ml) of Evans blue were intravenously administered to S-180 mice (tumor model) The tumor size of the mice was a diameter of 5 to 7 mm. The next day, each mouse was dissected and solid tumors were taken out therefrom. Evans blue was extracted by a conventional method and the leaked Evans blue was quantified by absorption of 560 nm (see Non-Patent Document 1).

O=[N+]([O-])OCC(CO[N+](=O)[O-])O[N+](=O)[O-] [nitroglycerin]
enhanced effect (tumor delivery): ≥ 30%
